Melting point data for 117 compounds are collected here from a melting point compilation (Tetko et al.).

The term melting point denotes the temperature of the solid-liquid transition. With `CC(C)C(C)C(C)(C)C` (configuration not stated), the melting point is -121 °C.
`CCCCN(CCCC)C(=O)COC(=O)c1ccccc1` showed a melting point of 25 °C.
As for `COc1ccc(N/N=C2\C(=O)N(CO)N=C2C(F)(F)F)cc1`, the melting point worked out at 142 °C.
For `COc1ccc2cc(Br)ccc2c1CC#N`, the melting point was in the range of 147 to 148 °C.
As for `CCOC(=O)c1c(C)n(O)c2ccc3nonc3c12`, the figure is 229 to 231 °C; as for `CC(Oc1ccc(Oc2nc3ccc(Cl)cc3o2)cc1)C(=O)O` (configuration not stated), 158 °C; as for `O=c1c2ccccc2cc2ccccn12`, 166 °C.
`ClC(Cl)(Cl)c1ccc(C(Cl)(Cl)Cl)cc1` yielded a melting point of 109 °C.
Under `O=C1OC(/C=C/c2ccc([N+](=O)[O-])cc2)Cc2ccccc21` (configuration not stated) stands 180 to 182 °C; under `FCC(F)F`, -84 °C.
Compound `Cc1cc(O)nc(O)c1` displayed a melting point of 197 °C.
Under `Nc1cc(Cl)c(Cl)c(Cl)c1` stands 99 °C.
As for `Cc1ccc([N+](=O)[O-])cc1N=C=S`, the figure is 60 to 62 °C; as for `Nc1c([N+](=O)[O-])cc(Cl)cc1[N+](=O)[O-]`, 147 °C.
In turn, `Cc1cccnc1C(N)=NO` showed a melting point of 94 to 95 °C.
As for `OCC1OC(O)C(F)C(O)C1O` (configuration not stated), the figure is 170 to 176 °C; as for `CC(=O)c1c(C)c[nH]c1C`, 138 °C.
As for `COC(=O)C1=C(C)NC(C)=C(C(=O)OC)C1c1ccccc1`, the figure is 198 °C.
Take `COc1cc2c(cc1OC)C(CO)NCC2` (configuration not stated): the melting point is 135 to 139 °C.
Under `CC(=O)OCCOCCOCCOC(C)=O` stands -50 °C; under `O=c1[nH]c(=S)[nH]c2ccccc12`, 320 to 322 °C; under `O=C(OCC(=O)N1CCCCC1)c1ccccc1`, 88 °C.
As for `COC(=O)CCCCC(=O)O`, the melting point turned out to be 9 °C.
As for `CC1CCCCC1O` (configuration not stated), the melting point came out at 7 °C.
In turn, `Nc1ccc(N=Nc2ccc(N)cc2)cc1` had a melting point of 250 °C.
As for `Cc1ccc(Sc2ccc(C(=O)c3ccccc3)cc2)cc1`, the figure is 73 to 87 °C.
For the compound `CC(C)(C)OC(=O)N1C2CCC1CC(=O)C2`, the melting point fell in the range of 58 to 59 °C.
As for `CC(C)(Oc1ccc(Cl)cc1)C(=O)NC(=O)NCN1CCOCC1`, the figure is 100 °C; as for `CC(=O)C1CCC2C3CCC4=CC(=O)CCC4(C)C3CCC12C` (configuration not stated), 128 to 132 °C.
Under `Cc1nc(-c2ccc(Cl)cc2)sc1C(=O)O` stands 251 °C; under `Cc1ccc(S(=O)(=O)N/N=C2\C=CC(C)(c3ccccc3)CC2)cc1` (configuration not stated), 147 °C.
For `FC(F)(F)c1cccnc1Br`, the melting point was 38 °C.
As for `COc1cc(O)ccc1Br`, the figure is 79 °C; as for `O=[N+]([O-])c1ccc(Br)nc1`, 138 °C; as for `CCOC(=O)C(=O)c1ccc(Br)s1`, 70 to 71 °C.
As for `C1CNCCCNCCNCCCNC1`, the figure is 98 to 102 °C; as for `C#CC(C)(C)Oc1ccc(C#N)cc1`, 30 to 32 °C; as for `C12C3C4C1C1C2C3C41` (configuration not stated), 126 °C.
For `O=Cc1ccc(-c2cccs2)cc1`, the melting point was 67 to 68 °C.
Under `NC(=S)C(c1ccccc1)c1ccccc1` stands 143 to 146 °C.
As for `O=C(OCC1OC(Oc2ccccc2CO)C(O)C(O)C1O)c1ccccc1` (configuration not stated), the figure is 180 °C; as for `ClC(Cl)(Cl)C(Cl)(Cl)Cl`, 187 °C.
As for `CCN1C(=O)CC(=O)N(CC)C1=S`, the figure is 106 to 109 °C.
For `CCCCCCCCCCNC(=O)C(C(F)(F)F)C(F)(F)F`, the melting point stood at 66 °C.
Under `O=C1C2CCCC1CCC2` stands 153 to 157 °C; under `N#CC1C(=S)NC2(C(=O)Nc3ccccc32)C2=C1CCCC2` (configuration not stated), 222 °C; under `N#Cc1ccc(CN2CCOCC2)cc1`, 86 to 87 °C.
Take `N#CC(C#N)=C(CC=O)c1ccc(Cl)cc1`: the melting point is 100 °C.
As for `Cc1ccc2ccc3ccc(C)cc3c2c1`, the melting point stood at 145 °C.
Under `Cn1cc(Br)c(-c2cccc(N)c2)n1` stands 95 to 97 °C.
`OCc1cccc(N2CCOCC2)c1`: the melting point lay in the range of 51 to 54 °C.
In the case of `O=C(O)CCCCCCCC(O)C(O)CCCCCCO` (configuration not stated), the melting point amounted to 100 °C.
As for `Cc1cccc2c1CC(C(=O)O)NC2` (racemic), the figure is 316 to 318 °C; as for `N[C@@H](CCC(=O)OCc1ccccc1)C(=O)O`, 169 °C; as for `O=[N+]([O-])c1ccccc1-n1cccc1`, 59 °C.
As for `O=C1CC2(CCCC2)CC(=O)N1`, the figure is 153 to 155 °C; as for `COc1ccc2[nH]c(C)c(CC(=O)O)c2c1`, 162 to 165 °C.
As for `COC(=O)CC1CCC(NC(=O)OC(C)(C)C)CC1` (configuration not stated), the figure is 81 °C.
As for `Cc1ccnc(C)n1`, the melting point is -4 °C.
As for `Cc1c(CCO)c(=O)n2c([nH]c3ccccc32)c1C#N`, the figure is 250 °C; as for `Cn1nc(CO)cc1-c1cccs1`, 56 to 60 °C; as for `CC(=O)C(=NNc1cccc([N+](=O)[O-])c1)C(C)=O`, 184 °C.
In turn, `O=C1Nc2ccccc2C=NC2CCCCC2N=Cc2ccccc2NC1=O` (configuration not stated) returned a melting point of 223 to 225 °C.
Regarding `O=C(c1ccccc1)C(c1ccccc1)(c1ccccc1)c1ccccc1`, the melting point worked out at 182 °C.
Under `N#Cc1ccc(N)c(Cl)c1` stands 101 °C; under `NC(=O)N1c2ccccc2CC(=O)c2ccccc21`, 216 °C.
Under `O=Cc1cnc(N2CCCCC2)s1` stands 49 °C.
Under `CSc1ccccc1C#N` stands 36 °C.
Consider `O=S(=O)(Cl)c1c(Cl)cccc1Cl`, for which the melting point was determined as 53 °C.
In turn, `COC(=O)c1ccc(C(=O)CC#N)cc1` had a melting point of 170 to 174 °C.
The compound `CN(C)Cc1c(O)c(Br)c(C(=O)O)c(Br)c1O` displayed a melting point of 208 °C.
Consider `O=S(=O)(Cl)c1cc(Br)cc2c1OCC2`, for which the melting point is 121 to 122 °C.
As for `CC(=O)NCCNC(C)=O`, the figure is 174 °C; as for `Cc1ccc(F)cc1C(N)=O`, 120 to 122 °C; as for `CCC1CCCCN1C(=O)COC(=O)c1ccccc1` (configuration not stated), 54.5 °C.
Compound `Oc1c(I)cc(I)c2cccnc12` showed a melting point of 210 °C.
As for `CC(C)NCCCC1(C(N)=O)c2ccccc2-c2ccccc21`, the figure is 94.5 °C.
As for `Cc1ccc(C=O)c2ccccc12`, the figure is 31 to 33 °C; as for `CC1(c2ccccc2)CC(C(=NOCC(O)CN2CCN(c3ccccc3)CC2)c2cc3ccccc3o2)C1` (configuration not stated), 96 to 97 °C.
For the compound `N#CC(=CNc1ccccn1)C(=O)c1ccccc1`, the melting point is 153 to 154 °C.
Compound `CN1CCN(Cc2ccc(CO)cc2)CC1` returned a melting point of 96 to 98 °C.
As for `OCc1cccc2nonc12`, the figure is 72 °C; as for `C=CC(C)Cl` (configuration not stated), -50 °C.
The compound `OC1CN2CCCC(O)C2C1O` (configuration not stated) returned a melting point of 144 °C.
In the case of `O=C(Nc1cccc(N=Nc2cccc(NC(=O)c3ccccc3)c2)c1)c1ccccc1`, the melting point is 285 °C.
Turning to `O=C(Cl)c1ccc(Cl)c(Cl)c1`, the melting point amounted to 32 °C.
Under `COc1ccc(NN=C2C(=O)NC(=S)NC2=O)cc1` stands 246 °C.
As for `CC(=O)C1CC1`, the figure is -68.3 °C; as for `CCCCNc1ccccc1`, -12 °C; as for `CN1CC2CC(C1)c1cccc(=O)n1C2` (configuration not stated), 137 °C.
Under `NC(=S)Nc1cccc(F)c1` stands 113 to 117 °C; under `Clc1cc(Br)cc(Br)c1`, 93 °C; under `COC(=O)CC(O)(CC(=O)OC)C(=O)OC`, 79.3 °C.
Turning to `O=C(O)c1ccc(F)cc1Br`, the melting point lay within 169 to 173 °C.
`COC(=O)C12ON1c1ccccc1C2=O` (configuration not stated) gave a melting point of 221 °C.
Under `O=C1OC2(c3ccc(O)cc3Oc3cc(O)ccc32)c2ccc(N=C=S)cc21` stands 360 °C.
As for `CCOc1ccccc1N`, the figure is -4 °C; as for `N#CCC(=O)N1CCCCC1`, 88 °C; as for `N#CCc1nn(-c2ccccc2)c(N)c1C#N`, 164 °C.
As for `O=C1OC(=O)c2ncccc21`, the figure is 134 to 138 °C; as for `O=C(O)CCCCCO`, 38 to 40 °C.
In the case of `Nc1nc(CC(=O)O)cs1`, the melting point is 118 °C.
Under `C#CCn1ccc2cc(C(=O)OC)ccc21` stands 94 to 96 °C; under `[N-]=[N+]=Nc1ccccc1-c1ccccc1`, 49 °C; under `CC(C)(C)c1cc(C#N)cc(C(C)(C)C)c1O`, 144 to 146 °C.
Take `CCCc1ccc(NC(C)=O)cc1O`: the melting point lay within 178 to 179 °C.
Compound `CCc1nn(CCCN2CCN(c3cccc(Cl)c3)CC2)c(=O)n1CCOc1ccccc1` returned a melting point of 83.5 °C.
For the compound `CCNC(C)CC` (configuration not stated), the melting point is -104 °C.
For the compound `OCC1Cc2ccccc2N1` (configuration not stated), the melting point fell in the range of 49 to 58 °C.
`NC(=O)C(CO)NC(=O)OCC1c2ccccc2-c2ccccc21` (configuration not stated) gave a melting point of 155 °C.
As for `Cc1cc(=O)[nH]c2c(/N=N/c3cccc([N+](=O)[O-])c3)c(N)nn12`, the figure is 318 °C; as for `C=CCOC(Cn1ccnc1)c1ccc(Cl)cc1Cl` (configuration not stated), 52.7 °C; as for `Oc1ccc(C(O)C2CCCCN2)cc1O` (configuration not stated), 204 °C.
Under `Cc1c(C(=O)O)nnn1Cc1ccc(Br)cc1` stands 192 to 193 °C.
Consider `Sc1cccc(Cl)c1Cl`, for which the melting point fell in the range of 57 to 61 °C.
Under `Oc1ccccc1C1CCCC1` stands 34.5 °C; under `COc1cc(C)ccc1S(=O)(=O)Cl`, 87 °C.
